According to US12076304B2, “Compositions comprising 15-HEPE and methods of treating or preventing hematologic disorders, and/or related diseases” (priority 2020, dated 2024):

System: NAFLD patients
Assay: Phase IIa study in NAFLD patients: adverse events
Type: in vivo, human
Description: The study was planned to include 96 evaluable patients with 32 patients randomized per treatment group.

15-HEPE [DS102] was tested, and the “Death, patients n” value (1 g (n = 32)) was 0, the “Patients with ≥1 AE related to study drug, %” value (1 g (n = 32)) was “(6.3) %” and the “Patients with ≥1 AE, %” value (1 g (n = 32)) was “(59.4) %”. The “Death, patients n” value (2 g (n = 30)) was 0, the “Patients with ≥1 AE related to study drug, %” value (2 g (n = 30)) was “(10.0) %” and the “Patients with ≥1 AE, %” value (2 g (n = 30)) was “(50.0) %”. For the same substance, the “Patients with ≥1 SAE, %” value (2 g (n = 30)) was “(3.3) %”, the “drug related serious adverse events (SAEs)” value (NAFLD patients, 1 g or 2 g per day, 16 weeks) was “no drug related serious adverse events” and the safety and tolerance (NAFLD patients, 1 g or 2 g per day, 16 weeks, compared to placebo) was “safe and well tolerated”.
